“And” between values parts separate entries of the source, which are not always exact repeats. Equal entries are not always repeated. Where two headings read alike, the source gives them in different places.
Tests used:
[1] = assay type: in vivo; conditions: trough plasma, individual patients
Experimental: Peripheral blood w ill be sent to Lab21 for anti-retroviral drug levels on Cycle 1 D ay 1 Pre-
treatment, Cycle 1 Day 15 and Cycle 4 D ay 22/Cycle 5 Day 1. […]
• 5mls of venous blood should be collected into a K2- ED TA BD vacutainer
• Samples should be inverted several times to ensure adequate mix ing. […]
• Samples should be stored at - 200C. […]
Ant i-retroviral drug lev els
• Samples to be collected Cycle 1 Day 1 Pre- treatment and Cycle 1 Day 15 and Cycle 4 Day […]
• 2x 1000 µl of plasma should be aliquoted to 1.5 ml plastic screw top tubes.
• Samples should be stored at - 200C (or below) for 24 hours befor e sending. […]
Therapeutic drug monitoring of the cART therapies was undertaken by Lab 21 Ltd (Cambridge, UK). Blood plasma was prepared from 5 ml of venous blood collected in K2-EDTA BD vacutainer tubes from kits provided by Covance. Samples were centrifuged at 2000 g for 20 minutes at room temperature, frozen at sites, packed in dry ice and sent to Lab 21 Ltd (Cambridge, UK) where they were stored at -20°C prior to analysis.

Kaposi's sarcoma = system: Kaposi's sarcoma; parameters: method as in Tulpule, et al. 2002; conditions: 100mg/m2 q 2 weeks, second-line; ref Tulpule, et al. 2002; cited from earlier work
CYPs 3A, 1A and 2C9 = system: CYPs 3A, 1A and 2C9; parameters: method as in Investigator Brochure; conditions: protocol background; ref Investigator Brochure; cited from earlier work
[2] = assay type: in vivo; conditions: trough plasma, Cycle 5 Day 15, individual patient
[3] = system: non-small cell lung cancer; parameters: method as in SCART protocol 7.3.1; conditions: selumetinib 75mg bd + docetaxol 75mg/m2 iv day 1 every 21 days (combination arm) or chemotherapy alone arm; ref SCART protocol 7.3.1; cited from earlier work
[4] = Cycle 1 Day 1 (pre-selumetinib), selumetinib starting dose 75 mg bd
[5] = Cycle 1 Day 15, selumetinib starting dose 75 mg bd
[6] = Cycle 1 Day 1 (pre-selumetinib), selumetinib starting dose 50 mg bd
[7] = Cycle 1 Day 15, selumetinib starting dose 50 mg bd
[8] = Cycle 5 Day 1, selumetinib starting dose 50 mg bd
[9] = Cycle 5 Day 1, selumetinib starting dose 75 mg bd

Row | Compound | Antiretroviral drug Concentration [1, 4] | Antiretroviral drug Concentration [1, 5] | Antiretroviral drug Concentration [1, 6] | Antiretroviral drug Concentration [1, 7] | Antiretroviral drug Concentration [1, 8] | other results
1 | COC(=O)N[C@H](C(=O)N[C@@H](Cc1ccccc1)[C@@H](O)CN(Cc1ccc(-c2ccccn2)cc1)NC(=O)[C@@H](NC(=O)OC)C(C)(C)C)C(C)(C)C [Atazanavir] | 758 ng/mL | 5797 ng/mL | – | – | – | –
2 | Nc1ccn([C@@H]2CS[C@H](CO)O2)c(=O)n1 [Lamivudine] | 817 ng/mL | 512 ng/mL | – | – | – | –
3 | CC(=O)O[C@H]1C(=O)[C@@]2(C)[C@H]([C@H](OC(=O)c3ccccc3)[C@]3(O)C[C@H](OC(=O)[C@H](O)[C@@H](NC(=O)c4ccccc4)c4ccccc4)C(C)=C1C3(C)C)[C@]1(OC(C)=O)CO[C@@H]1C[C@@H]2O [paclitaxel] | – | – | – | – | – | median PFS (Kaposi's sarcoma): 39 weeks; response rate (Kaposi's sarcoma): 56%
4 | O=C1Nc2ccc(Cl)cc2[C@@](C#CC2CC2)(C(F)(F)F)O1 [Efavirenz] | 3378 ng/mL | 3139 ng/mL | 4545 ng/mL | 4180 ng/mL | 6257 ng/mL | –
5 | Cn1cnc2c(F)c(Nc3ccc(Br)cc3Cl)c(C(=O)NOCCO)cc21 [AZD6244] | – | – | – | – | – | induction of CYPs 3A, 1A and 2C9 (CYPs 3A, 1A and 2C9): weak
6 | C[C@H](Cn1cnc2c(N)ncnc21)OCP(=O)(O)O [Tenofovir] | 84 ng/mL and 30 ng/mL and 60 ng/mL and 130 ng/mL and 90 ng/mL | 123 ng/mL and 46 ng/mL and 239 ng/mL and 40 ng/mL | 133 ng/mL and 15 ng/mL and 90 ng/mL | 51 ng/mL and 234 ng/mL and 43 ng/mL | 55 ng/mL | Antiretroviral drug Concentration ([2]; selumetinib starting dose 50 mg bd): 230 ng/mL; Antiretroviral drug Concentration ([2]; selumetinib starting dose 75 mg bd): 143 ng/mL; Antiretroviral drug Concentration [1, 9]: 135 ng/mL and 104 ng/mL
7 | CC(C)c1nc(CN(C)C(=O)N[C@H](C(=O)N[C@@H](Cc2ccccc2)C[C@H](O)[C@H](Cc2ccccc2)NC(=O)OCc2cncs2)C(C)C)cs1 [Ritonavir] | 364 ng/mL and 342 ng/mL | 1585 ng/mL and 564 ng/mL | 516 ng/mL and 94 ng/mL | 462 ng/mL and 575 ng/mL and 246 ng/mL | 328 ng/mL and 566 ng/mL | Antiretroviral drug Concentration [1, 9]: 431 ng/mL
8 | CC(=O)O[C@@]12CO[C@@H]1C[C@H](O)[C@@]1(C)C(=O)[C@H](O)C3=C(C)[C@@H](OC(=O)[C@H](O)[C@@H](NC(=O)OC(C)(C)C)c4ccccc4)C[C@@](O)([C@@H](OC(=O)c4ccccc4)[C@H]21)C3(C)C [docetaxol] | – | – | – | – | – | febrile neutropenia, patients [3]: 0/42
9 | Nc1nc(NC2CC2)c2ncn([C@H]3C=C[C@@H](CO)C3)c2n1 [Abacavir] | 1060 ng/mL | 246 ng/mL | – | – | – | –

From PMC11921695 (BMC Cancer, 2025)
